From US10126289B2, “Multimodality CMOS sensor array for physiological characterization of cells” (Georgia Tech Research Corporation, priority 2015, dated 2018)

Experiments:
human cardiomyocytes [1] = assay: Joint-modality cardiac drug screening: extracellular voltage recording of cardiomyocyte beating on CMOS sensor chip; format: cell-based; details: 10 nM isoproterenol in culture medium
Description: (§1) Human Cardiomyocytes. Human ESCs are first cultured in a monolayer until confluence. Next, cardiomyocytes are directly differentiated through the use of small molecules Gsk3 inhibitor and Wnt inhibitor for 14 days. Finally, the CMOS chip is sterilized using 70% ethanol and coated with a Matrigel matrix as a protein mixture layer to enhance cell culture and attachment. Cardiomyocytes are then seeded onto the CMOS chips as either single cells or aggregated cardiospheres.
(§2) On-chip cultured human cardiomyocytes was used in this experiment. Their autonomous beating is captured by the extracellular voltage recording, and the beating rate is used to characterize the potency of the cardiac drugs. Isoproterenol, a small molecule cardiac drug, is used in this example. Isoproterenol has its known drug effect of activating the β1-receptors on the cardiac cells and increasing the cardiac cells beating rate. It has been widely used to treat bradycardia and heart block.
(§3) First, the on-chip cardiomyocytes beating spikes were recorded as the extracellular voltage recording in a normal culture medium. The baseline cellular impedance mapping was also measured. Next, 10 nM isoproterenol was directed to the cell culture medium using pipettes, and the cardiomyocytes are real-time monitored with joint-modality measurements. […]

human cardiomyocytes [2] = assay: Joint-modality cardiac drug screening: real-time cellular impedance sensing (cell attachment); format: cell-based; details: 10 nM isoproterenol; FIG. 20
Description: as §1, §2, §3

[3] = test system: human ovarian cancer cells (HeyA8-F8); details: 200 μg/mL luciferin at T=0; VPD 0.4V
Description: Ovarian Cancer Cells. For culturing the ovarian cancer cells (HeyA8-F8), the CMOS chip surface is sterilized by 70% ethanol and then washed three times with sterile Phosphate Buffered Saline (PBS). To increase cell adhesion to the chip surface, 0.1% gelatin is added onto the chip for 30 minutes before being aspirated. […] Ovarian cancer cells are then seeded directly onto the CMOS chip and allowed to attach before adding 1 mL of cell culture media.
The human ovarian cancer cells (HeyA8-F8) can constitutively express firefly luciferase. […] The bioluminescence information can be used to verify the viability of the HeyA8-F8 cancer cells and can be further extended to other bioluminescence cell-based assays.
Since the intensity of the bioluminescence light is generally weak, the background noise, such as the photodiode dark current, should be suppressed and calibrated. […] Moreover, dark current in each sensing pixel is recorded before the measurement and then subtracted after the bioluminescence recoding.
The CMOS sensor chip starts data recording after a 130-second setup time. During the optical detection, the photodiode reset pulse width is 1 second and the repetition rate is 0.05 Hz. Thus, each photo current integration window is 19 seconds, and the optical detection data is refreshed every 20 seconds. […]

[4] = test system: human ovarian cancer cells (HeyA8-F8); details: general statement; depends on number of cells and luciferin concentration; cited from earlier work

Row | Structure (SMILES) | increase of recorded number of cell beating spikes in the 90-second counting window (human cardiomyocytes [1]) [%] | real-time cardiomyocytes impedance change (cell attachment) (human cardiomyocytes [2]) | time at which bioluminescence emission fully decays [3] [s] | time of bioluminescence emission peak after administration [3] | time of luminescence emission peak after administration (in general) [4]
1 | CC(C)NCC(O)c1ccc(O)c(O)c1 (centres unmarked) [isoproterenol, Isoproterenol] | 150 | small decrease | – | – | –
2 | O=C(O)[C@H]1CSC(c2nc3ccc(O)cc3s2)=N1 [luciferin] | – | – | 800 | around 300 seconds | about 5 minutes
